# Patent US11344527B2, “Methods and compositions for treating cancer” (Sutter West Bay Hospitals, priority 2007, dated 2022)
# Entries after “also recorded” stand apart in the source; their conditions may differ. Read-outs that look alike come from different tables or passages of the source.
# Legend:
# MDA-MB231 cells [1] = assay: Boyden chamber invasion assay, MDA-MB231; type: cell-based, human; conditions: for invasion of MDA-MB231 cells: 0.1, 1.0 or 1.5 μM, FIG. 1A
# Description: Invasion is an important step towards breast cancer cell metastasis. Therefore, the effects of several cannabinoids were tested on their ability to modulate the migratory and invasiveness activity of the most aggressive human breast cancer cell line, MDA-MB231, in a reconstituted basement membrane in a Boyden chamber.
# SF126 cells = assay: MTT cell proliferation assay, SF126 GBM cells; type: cell-based, human
# Description: (§1) The human GBM cell lines used were SF126, U87 and U251. Cell lines were maintained at 37° C. and 5% CO2.
# (§2) Treatment groups were divided into 1) no treatment (control), 2) Δ^9-THC alone, 3) CBD alone, 4) Δ^9-THC and CBD combined. Positive and negative aspects of constituent interaction were determined in this 2×2 design using 2-way analysis of variance as described by (Slinker, 1998). […] Significant differences were also determined using ANOVA where suitable. […] P values <0.05 defined statistical significance.
# U87 cells = assay: MTT cell proliferation assay, U87 GBM cells; type: cell-based, human; conditions: 95% confidence limits
# Description: as §1, §2
# U251 cells [2] = assay: MTT cell proliferation assay, U251 GBM cells; type: cell-based, human; conditions: 95% confidence limits
# Description: as §1, §2
# MDA-MB231 cells [3] = assay: MTT cell proliferation assay, MDA-MB231; conditions: read-out: IC50 antiproliferative, MDA-MB231
# MDA-MB436 cells = assay: MTT cell proliferation assay, MDA-MB436; conditions: read-out: IC50 antiproliferative, MDA-MB436
# Id-1 [4] = assay: Id-1 protein expression by quantitative Western analysis, MDA-MB231; type: cell-based, human; conditions: MDA-MB231 cells, 1.5 μM, two days, FIG. 1E
# Text: Proteins were separated by SDS/PAGE, blotted on Immobilon membrane, and probed with anti-Id-1 and the appropriate secondary antibody. Band intensity values were obtained directly from the blot using AlphaeaseFC software (San Leandro, Calif.) or from film using Image-J (NIH, MD). As a normalization control for loading, blots were stripped and re-probed with mouse alpha-tubulin (Abeam, Cambridge, Mass.).
# The ability of CBD to regulate the expression of key genes that control breast cancer cell aggressiveness and invasiveness was determined A potential candidate protein that could mediate the effects of CBD on both phenotypes was the helix-loop-helix protein Id-1. […] The inhibitory effect of CBD on Id-1 expression occurred at concentrations as low as 100 nM. […] The CBD concentrations effective at inhibiting Id-1 expression correlated with those used to inhibit the proliferative and invasive phenotype of MDA-MB231 cells. Furthermore, the time period needed to observe the down-regulation of Id-1 protein in the presence of CBD correlated with the inhibitory effects of CBD on the aggressiveness and invasiveness of MDA-MB231 cells (FIG. 1, panel D).
# In order to determine the SAR between cannabinoids and the inhibition of Id-1, MDA-MB231 cells were treated for two days with multiple cannabinoid compounds and Id-1 protein levels were assessed.
# Id-1 promoter = Id-1 promoter luciferase reporter assay, MDA-MB231; type: cell-based, human; conditions: MDA-MB231 cells, 1.5 μM, 2 or 3 days; FIG. 2B, C
# Description: A SacI-BspHI fragment of 2.2 kb corresponding to the 5′ upstream region of human Id-1 gene and driving a luciferase gene in a PGL-3 vector (Promega) has already been described (Id-1-sbsluc). Cells were plated in six well dishes in medium supplemented with 10% FBS and 5 μg/ml insulin. After 24 h, cells were cotransfected with […] of luciferase reporter plasmids and 2 μg of pCMVβ (Clontech) using superfect reagent (Qiagen). pCMVβ contained bacterial β-galactosidase and served to control for variation in transfection efficiency. 3 h after transfection, the cells were rinsed twice with PBS and were cultured in the absence or presence of CBD for 48-72 h. Cell pellets were lysed in 80 μl of reporter lysis buffer (Promega) for 10 min at room temperature. Lysed cells were centrifuged and supernatants harvested. […]
# To determine if this effect was due to the inhibition of transcription, a construct was used that contained the Id-1 promoter fused to a luciferase reporter in a PGL-3 basic vector. […] Twenty-four hours after transfection, MDA-MB231-Id-1-luc cells were treated with CBD for 2 or 3 days and luciferase activity was measured (FIG. 2, panel B and panel C). […] These findings correlated to the data obtained when the expression of the Id-1 protein was assessed by Western analysis.
# Id-1 [5] = assay: Id-1 protein expression by Western blot, U251; type: cell-based, human; conditions: FIG. 11
# ERK, JNK, and p38 MAPK = assay: MAPK activity (pERK, ERK, JNK, p38) by Western analysis, U251; type: cell-based, human
# Description: Cells cultured and treated in 6-well dishes were washed twice with cold PBS. Lysis buffer was added and cells lysed by freezing for 10 min at −70° C. and then thawing. Cell lysate was collected and the concentration was determined using Bradford reagent. Equal amounts of protein were heated to 90° C. in Laemmli sample buffer with β-mercaptoethanol, and loaded onto a precast SDS-PAGE gel (Bio-Rad Laboratories, Hercules, Calif.). Protein was transferred to an Immobilon membrane (Millipore, Billerica, Mass.) overnight at 2-4° C. Blots were then blocked with 5% nonfat dry milk in TBS+Tween for 1 h. Primary antibody from Millipore (rabbit anti-phospho-JNK, rabbit anti-phospho-p38, rabbit anti-phospho-ERK1/2 and rabbit anti-ERK1/2, 1 mcg/mL) in blocking buffer was then added for 1 h. The blots were then rinsed three times 10 min with TBS+Tween. Secondary antibody (Donkey Anti-Rabbit IgG, Jackson Immunoresearch, West Grove, Pa.) was then added. Blots were incubated for 45 min and then washed 4 times for 15 min each. The blots were developed with SuperSignal Femto (Pierce, Rockford, Ill.), and imaged on either a Fluorchem 8900 (Alpha Innotech, San Leandro, Calif.) or ECL Hyperfilm (Amersham-Pharmacia, Piscataway, N.J.). Band intensity values were obtained (after background subtraction) directly from the […] using AlphaeaseFC software (San Leandro, Calif.) or from film using Image-J (NIH, MD). As a normalization control for loading, blots were stripped and re-probed with mouse alpha-tubulin (Abcam, Cambridge, Mass.) and goat anti-mouse IgG (Jackson Immunoresearch) for the primary and secondary antibodies, respectively.
# The regulation of ERK, JNK, and p38 MAPK activity plays a role in controlling cell growth and apoptosis. U251 cells were used to determine whether modulation of ERK, JNK, and p38 MAPK activity occurred.
# U251 cells [6] = assay: Cell cycle analysis (PI staining, FACS), U251; type: cell-based, human; conditions: Δ9-THC 1.7 μM and/or CBD 0.4 μM, FIG. 8
# Description: U251 cells were grown in Petri dishes (100 mm×15 mm) and received drug treatments for 2 days. On the third day, the cells were harvested and centrifuged at 1200 rpm for 5 minutes. The pellet was washed 1× with PBS+1% BSA, and centrifuged again. The pellet was resuspended in 0.5 ml of 2% paraformaldehyde (diluted with PBS) and left to fix overnight at room temperature. The next day the cells were pelleted and resuspended in 0.5 ml 0.3% Triton in PBS and incubated for 5 minutes at room temperature. The cells were then washed 2 times with PBS+1% BSA. The cells were finally suspended in PBS (0.1% BSA) with 10 ug/ml Propidium Iodide and 100 μg/ml RNAse. The cells were incubated for 30 minutes at room temperature before being stored at 4 C. Cell cycle was measured using a FACS Calibur using Cell Quest Pro and Modfit software.
# [7] = three day treatment, 95% confidence limits (Table 4), read-out: IC50 antiproliferative, SF126
# [8] = treated for three days, value with confidence limits
# [9] = Homo sapiens, SF-126, 72 h, three day treatment, 95% confidence limits (Table 4), read-out: IC50 antiproliferative, SF126
smiles,measurement,setting,value
"Cc1c(C(=O)c2cccc3ccccc23)c2cccc3c2n1[C@H](CN1CCOCC1)CO3 [WIN 55,212-2]",invasion of MDA-MB231 cells,MDA-MB231 cells [1],significantly reduced
same,IC50,"SF126 cells; seven day treatment, 95% confidence limits, read-out: IC50 antiproliferative, SF126",840 nM
same,IC50,SF126 cells; [7],1300 nM
same,IC50,"U87 cells; seven day treatment, read-out: IC50 antiproliferative, U87",770 nM
same,IC50,"U251 cells [2]; seven day treatment, read-out: IC50 antiproliferative, U251",1100 nM
same,IC50,MDA-MB231 cells [3]; [8],1700 nM
same,IC50,MDA-MB436 cells; [8],2400 nM
"CCCCCc1cc(O)c2c(c1)OC(C)(C)c1ccc(C)cc1-2 [CBN, cannabinol]",inhibition of Id-1 protein (structure activity relationship),Id-1 [4],partially inhibit
same,IC50,SF126 cells; [9],1200 nM
same,IC50,"MDA-MB231 cells [3]; Homo sapiens, MDA-MB-231, 72 h",1200 nM
same,IC50,"MDA-MB436 cells; Homo sapiens, MDA-MB-436, 72 h",2600 nM
"CCCCCc1cc(O)c(C/C=C(\C)CCC=C(C)C)c(O)c1 [CBG, cannabigerol]",IC50,SF126 cells; [9],1600 nM
same,IC50,"MDA-MB231 cells [3]; Homo sapiens, MDA-MB-231, 72 h",2300 nM
same,IC50,"MDA-MB436 cells; Homo sapiens, MDA-MB-436, 72 h",2100 nM
"CCCCCCC(C)(C)c1ccc([C@@H]2C[C@H](O)CC[C@H]2CCCO)c(O)c1 [CP 55,940]",inhibition of Id-1 protein (structure activity relationship),Id-1 [4],partially inhibit; also recorded: inhibited Id-1 expression
same,inhibition of Id-1 protein (structure activity relationship),Id-1 [4]; 940,small inhibition
same,IC50,SF126 cells; [7],3300 nM
same,IC50,MDA-MB231 cells [3]; [8],2500 nM
same,IC50,MDA-MB436 cells; [8],1300 nM
C=C(C)[C@@H]1CCC(C)=C[C@H]1c1c(C)cc(O)cc1O [0-1602],inhibition of Id-1 protein (structure activity relationship),Id-1 [4],No inhibition
C=C(C)[C@@H]1CCC(C)=C[C@H]1c1c(O)cc(O)cc1CCCCC [Abn-CBD],inhibition of Id-1 protein (structure activity relationship),Id-1 [4],No inhibition
"C=C(C)[C@@H]1CCC(C)=C[C@H]1c1c(O)cc(CCCCC)cc1O [CBD, cannabidiol]","cell invasiveness, control MDA-MB231 (-Id1) cells","MDA-MB231 cells [1]; 1.5 μM, two day treatment, empty pLXSN vector, FIG. 7",significant reduction
same,invasion of MDA-MB231 cells,MDA-MB231 cells [1],significantly reduced
same,Id-1 promoter luciferase activity,Id-1 promoter,significant inhibition
same,IC50,SF126 cells; [9],1200 nM
same,IC50,"SF126 cells; Homo sapiens, SF-126, 72 h, three day treatment, 95% confidence limits, read-out: CBD IC50, SF126",1200 nM
same,IC50,"SF126 cells; Homo sapiens, SF-126, limits 0.64-0.82, reported with the Table 3 experiments, read-out: IC50 antiproliferative, SF126",730 nM
same,IC50,"U87 cells; Homo sapiens, U-87 MG, 72 h, three day treatment, read-out: CBD IC50, U87",700 nM
same,IC50,"U251 cells [2]; Homo sapiens, U-251, 72 h, three day treatment, read-out: CBD IC50, U251",600 nM
same,Id-1 protein expression in U251 cells,Id-1 [5],concentration-dependent inhibition
same,"p-ERK, higher concentrations alone compared with the combination","ERK, JNK, and p38 MAPK; U251, three days, 2.5 μM Δ9-THC, 2.0 μM CBD, or 1.7 μM/0.4 μM combination, FIG. 6D",small inhibition
same,p-ERK,"ERK, JNK, and p38 MAPK; U251, Δ9-THC 1.7 μM and/or CBD 0.4 μM, two days, FIG. 4",no changes
same,cell cycle distribution,U251 cells [6],increases in the population of cells in G1 and G2/M phase and decreases in cells in S phase
same,IC50,"MDA-MB436 cells; Homo sapiens, MDA-MB-436, 72 h",1500 nM
